For two molecules, IC50 results are on record in patent US20230027295A1, “FXIA INHIBITORS AND PREPARATION METHOD THEREFOR AND PHARMACEUTICAL USE THEREOF” (Shenzhen Salubris Pharmaceuticals Co., Ltd., priority 2019, published 2023).

As a reminder, the IC50 is the concentration at which inhibition is half-maximal. Higher therefore signals weaker potency.

In one assay the target is T1, Human Factor VIIa (Homo sapiens, UniProt P08709).
T1 construct: hFVIIa: Human Factor VIIa: hFVIIa 4591L; purchased hFVIIa 4591L
T1 sequence (P08709 213-466 limits assumed): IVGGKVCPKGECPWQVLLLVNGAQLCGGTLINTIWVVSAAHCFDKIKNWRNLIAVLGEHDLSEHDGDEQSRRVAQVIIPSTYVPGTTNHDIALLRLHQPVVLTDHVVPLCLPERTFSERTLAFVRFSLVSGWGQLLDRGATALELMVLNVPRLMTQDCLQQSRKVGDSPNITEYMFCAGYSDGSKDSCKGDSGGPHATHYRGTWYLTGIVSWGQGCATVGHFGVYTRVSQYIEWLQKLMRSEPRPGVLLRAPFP
T1 sequence (P08709 61-212 partner limits assumed): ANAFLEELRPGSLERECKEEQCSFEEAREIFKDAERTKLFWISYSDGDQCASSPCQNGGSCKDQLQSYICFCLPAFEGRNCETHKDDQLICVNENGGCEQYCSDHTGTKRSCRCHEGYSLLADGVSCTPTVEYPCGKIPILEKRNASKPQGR
Nature of the assay: Selectivity to coagulation factors: hFVIIa (substrate S-2288). In kind it is biochemical. The procedure:
Example 52: Investigation of the Selectivity of the Compounds of the Present Invention to Coagulation Factors
Enzyme: hFXa: Human Factor Xa: 71nkat. hFIIa: HT5146L. hFVIIa: Human Factor VIIa: hFVIIa 4591L. kallikrein: LOT180223.
10 mM test compound dissolved in 100% DMSO was diluted with 100% DMSO to 1000, 200, 40, 8, 1.6 μM. 98 μL of enzyme solution was added to each well of a 96-well plate, while 98 μL of buffer was added to the blank wells. 2 μL of compounds of different concentrations were added, while the blank and control wells were added with DMSO instead. They were mixed with a shaker, and incubated at 37° C. for 20 min.
The concentrations of hFXa and S-2222™ were FXa (1:28) and 800 μmol/L, respectively. The concentrations of hFIIa and S-2238™ were hFIIa (0.06 U/ml) and 500 μmol/L, respectively. The concentrations of hFVIIa and S-2288™ were hFVIIa (80 nM) and 1600 μmol/L, respectively. The concentrations of kallikrein and substrate were kallikrein (20 nM) and 1600 μmol/L, respectively.
Finally, 100 μL substrate was added to each well, and its absorbance was measured at 405 nm.

Another assay has as its target T2, CYP2B6 (Homo sapiens, UniProt P20813).
T2 construct: Liver microsomes (150-donor, Corning, Cat. 452117; Lot; 38292), NADPH; tissue Corning 452117; host or cells: liver microsomes, 150-donor pool
T2 sequence (P20813 1-491): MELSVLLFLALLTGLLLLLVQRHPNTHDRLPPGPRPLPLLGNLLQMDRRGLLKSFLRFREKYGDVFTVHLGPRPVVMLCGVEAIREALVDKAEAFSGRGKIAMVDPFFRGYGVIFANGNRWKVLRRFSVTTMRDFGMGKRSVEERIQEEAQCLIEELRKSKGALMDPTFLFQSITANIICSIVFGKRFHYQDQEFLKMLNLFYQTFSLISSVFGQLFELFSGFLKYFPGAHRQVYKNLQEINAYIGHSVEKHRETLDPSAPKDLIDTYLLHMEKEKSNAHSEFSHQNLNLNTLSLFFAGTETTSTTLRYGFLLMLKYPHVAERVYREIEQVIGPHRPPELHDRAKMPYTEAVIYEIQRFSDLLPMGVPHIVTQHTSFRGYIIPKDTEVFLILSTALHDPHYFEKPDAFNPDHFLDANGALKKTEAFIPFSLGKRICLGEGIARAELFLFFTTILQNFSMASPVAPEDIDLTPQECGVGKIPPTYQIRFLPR
Nature of the assay: CYP enzyme inhibition in liver microsomes: CYP2B6. In kind it is in vitro ADME. Conditions: 0.2 mg/mL liver microsomes. The procedure: (§1) Example 55: Investigation of CYP Enzyme Inhibition by the Compounds of the Present Invention Liver microsomes (150-donor, Corning, Cat. 452117; Lot. 38292), NADPH. A 0.2 mg/mL microsome system was prepared, each test substance and substrate were added, and the final concentration of the test substance was 50 μM. After pre-incubating for 8 min, 10 mM NADPH was added to start the reaction, and the final concentration of NADPH was 1 mM. After a period of incubation, an internal standard such as methanol was added to stop the reaction. The amount of substrate metabolites generated in each reaction well was detected. Data processing: Taking the metabolite generation in the blank well as 100%, the reduction of metabolite generation in each well of the test substance was calculated, and the inhibition rate was calculated.
(Liver microsomes are vesicles of endoplasmic reticulum, rich in cytochrome P450 enzymes.)

The target of another assay is T3, CYP2C8 (Homo sapiens, UniProt P10632).
T3 construct: Liver microsomes (150-donor, Corning, Cat. 452117; Lot; 38292), NADPH; tissue Corning 452117; host or cells: liver microsomes, 150-donor pool
T3 sequence (P10632 1-490): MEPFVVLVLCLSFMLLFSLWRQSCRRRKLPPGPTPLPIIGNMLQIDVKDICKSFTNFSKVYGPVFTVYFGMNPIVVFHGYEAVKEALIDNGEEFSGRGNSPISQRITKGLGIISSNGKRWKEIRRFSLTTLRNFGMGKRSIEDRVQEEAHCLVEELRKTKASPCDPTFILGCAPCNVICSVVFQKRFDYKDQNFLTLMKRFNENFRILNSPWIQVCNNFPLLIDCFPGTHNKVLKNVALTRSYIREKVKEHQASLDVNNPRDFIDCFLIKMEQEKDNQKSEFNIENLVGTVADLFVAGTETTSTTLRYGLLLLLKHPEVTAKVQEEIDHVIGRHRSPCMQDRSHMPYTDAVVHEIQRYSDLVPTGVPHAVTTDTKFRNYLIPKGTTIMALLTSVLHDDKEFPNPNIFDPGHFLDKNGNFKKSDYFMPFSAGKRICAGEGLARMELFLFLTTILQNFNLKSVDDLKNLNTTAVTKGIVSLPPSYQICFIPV
The assay is described as follows: CYP enzyme inhibition in liver microsomes: CYP2C8. Type of assay: in vitro ADME. As to conditions: 0.2 mg/mL liver microsomes. The protocol:
as §1

For `COc1nn([C@@H](Cc2ccccc2)C(=O)Nc2ccc(C(=O)O)cc2)c(=O)cc1-c1cc(Cl)ccc1C(C)=O` [Example 19, (S)-4-(2-(4-(2-acetyl-5-chlorophenyl)-3-methoxy-6-oxopyridazin-1(6H)-yl)-3-phenylpropanamido)benzoic acid], the 50% inhibitory concentration (IC50) against Human Factor VIIa is greater than 100 µM; at CYP2B6, greater than 50 µM; against CYP2C8, roughly 50 µM.
In the case of `CCC(=O)c1ccc(Cl)cc1-c1cc(=O)n([C@@H](Cc2ccccc2)C(=O)Nc2ccc(C(=O)O)cc2)nc1OC` [Example 32], the half-inhibitory concentration (IC50) against Human Factor VIIa was greater than 100 µM; at CYP2B6, greater than 50 µM; against CYP2C8, roughly 30 µM.
